Measured values published in paper PMC12677653, “Inhibition of Tumor Lipogenesis and Growth by Peptide‐Based Targeting of SREBP Activation” (Advanced Science, 2025).

Columns and labels:
[1] = set-up: species or system ICR male mice; conditions: mouse, in vivo, iv, 10 mg/kg
Description: Figure 2 LNPs with a 1:1 ratio of TAT to cRGD effectively accumulate in tumor tissues. a) Schematic illustration of LNP composition. b,c) Biodistribution analysis of differently sized LNPs in Huh7 tumor‐bearing BALB/c‐nude mice (n = 3). (b) In vivo fluorescence imaging at 8, 12, 24, and 48 h post‐intravenous injection (10 mg kg^−1). The arrows indicate the tumor site. (c) Ex vivo fluorescence imaging of tumors and major organs harvested 48 h post‐injection. d,e) Optimization of TAT/cRGD peptide coating ratios for tumor‐targeted LNPs (n = 3). (d) In vivo fluorescence imaging at 12, 24, and 48 h post‐injection. The arrows indicate the tumor site. (e) Ex vivo fluorescence imaging of tumors and organs at 48 h. f) Pharmacokinetic profile of LNP@Insig1/2 loop 1 peptide versus free peptide (Insig1/2 loop 1 peptide) following intravenous administration in ICR mice (n = 3, 10 mg kg^−1). Plasma concentration‐time curves were quantified, and pharmacokinetic parameters were calculated: AUC (0–t) (h·ng mL^−1) and AUC (0–∞) (h·ng mL^−1). Data are expressed as mean ± SD (n = 3). Statistical significance was determined by one‐way analysis of variance (ANOVA). * p < 0.05, ** p < 0.01, *** p < 0.001, **** p < 0.0001, ns, no significance. TEXT PRINTED IN THE PICTURE: (f) Peptide: Tlast (h): 0.500±0; T1/2 (h): 0.084±0.0143; AUC(0-t) (h*ng/mL): 326±71.8; AUC(0-∞)(h*ng/mL): 331±73.0; Cl(L/kg/min): 0.518±0.109 | (f) LNP@Insig1/2 loop1 peptide: Tlast (h): 5.00±1.155; T1/2 (h): 0.724±0.183; AUC(0-t) (h*ng/mL): 4928±1425; AUC(0-∞)(h*ng/mL): 4955±1422; Cl(L/kg/min): 0.0337±0.0191 DOUBTS OF THE COPYIST ABOUT THIS PICTURE: Peptide, T1/2 (h): 0.084±0.0143, small print, 8 or 6 and 3 or 5 not certain / Peptide, AUC(0-t): 326±71.8, small print, 6 or 8 not certain / Peptide, AUC(0-∞): 331±73.0, small print, 3 or 8 not certain / Peptide, Cl: 0.518±0.109, small print, 8 and 9 not certain / LNP@Insig1/2 loop1 peptide, T1/2 (h): 0.724±0.183, small print, 8 and 3 not certain / LNP@Insig1/2 loop1 peptide, AUC(0-t): 4928±1425, small print, 9, 8 and 5 not certain / LNP@Insig1/2 loop1 peptide, AUC(0-∞): 4955±1422, small print, 9 and 5 not certain / LNP@Insig1/2 loop1 peptide, Cl: 0.0337±0.0191, small print, 3 and 9 not certain
The pharmacokinetic assay of Insig1/2 loop 1 peptide and LNP@ Insig1/2 loop 1 peptide was performed in ICR male mice. The male mice were administered intravenously (iv) at a dose of 10 mg kg^−1. Then, blood samples were collected into tubes containing EDTA at 0.083, 0.25, 0.5, 1, 2, 4, 8, 24 h (iv) after dosing. After centrifugation at 6000 rpm for 10 min at 4 °C, the obtained plasma samples were stored at ‐20 °C. Subsequently, the plasma samples were analyzed by liquid (LC‐MS/MS) chromatography‐tandem mass spectrometry analysis.

SREBP2 = assay: Immunofluorescence of SREBP2 nuclear translocation; assay type: cell-based, human; conditions: Huh7 cells, peptide 15 μM, IGF1 100 ng/mL 8 h
Description: For endogenous SREBP1 and SREBP2 staining, the cells were washed with ice‐cold PBS and fixed with 4% paraformaldehyde in PBS at room temperature (around 20–25 °C) for 15 min. Then, the cells were treated with 0.1% Triton X‐100 for 5 min and blocked in 3% BSA for 1 h at room temperature. The cells were then incubated with primary antibody against SREBP1 (diluted 1:200) or SREBP2 (diluted 1:200) overnight at 4 °C. After incubation with fluorescent‐dye‐conjugated secondary antibody (diluted 1:1000; Thermo Fisher Scientific) in PBS containing 0.05% saponin, 5% goat serum and 0.5% BSA for 1 h at room temperature followed by DAPI (diluted 1:10 000; Thermo Fisher Scientific) staining of the cell nucleus for 10 min. Cells were examined using a laser confocal microscope (Zeiss LSM 900).
a) Following pretreatment with Insig1/2 loop 1 peptide (15 μM) and IGF1 stimulation (100 ng ml⁻¹, 8 h), Huh7 cells were subjected to immunofluorescence analysis (scale bar: 10 μm).

[2] = test system: Insig1 S207/Insig2 S151 phosphorylation; assay: Immunoblot of Insig1 S207/Insig2 S151 phosphorylation, Hep3B; assay type: cell-based, human; conditions: Hep3B cells, peptide 7.5 or 15 μM 1 h before IGF1 100 ng/mL
Description: Cellular proteins were extracted using ice‐cold lysis buffer [50 mM Tris‐HCl (pH 7.5), 150 mM NaCl, 0.1% SDS, 1% Triton X‐100, 1 mM DTT, 0.5 mM EDTA] supplemented with protease inhibitor cocktail (Roche) and phosphatase inhibitors (Bimake). Following lysis, cell extracts were centrifuged at 13400 × g for 15 min at 4 °C to remove cellular debris. The clarified supernatants were then incubated with primary antibodies overnight at 4 °C with gentle rotation. For Flag‐tagged protein immunoprecipitation, Flag M2 magnetic beads (Sigma) were added to the lysate‐antibody mixture and incubated for an additional 4 h at 4 °C. The immunocomplexes were washed three times with lysis buffer under stringent conditions (5 min per wash with rotation). Finally, the precipitated proteins were eluted and analyzed by immunoblotting as previously described.^[ [35] ^]
e) Hep3B cells were pretreated with low (7.5 μM) or high (15 μM) concentrations of Insig1/2 loop 1 peptide for 1 h before IGF1 (100 ng ml⁻¹) stimulation.

For “RKKRRQRRRLYPCIDSHLGEPHKFKRE [Insig1/2 loop 1 peptide]”, the “AUC(0-t)” value [1] was 326 ± 71.8 ng·h/mL, the “AUC(0-∞)” value [1] was 331 ± 73.0 ng·h/mL and the Cl [1] was 518 ± 109 mL/min/kg. The Tlast [1] was 0.500 ± 0 h, the “IGF1-induced nuclear translocation of SREBP2” value (SREBP2) was “inhibited” and the “Insig1 S207/Insig2 S151 phosphorylation” value [2] was “markedly inhibited”.
